Biological target: SARS-CoV-2 RBD (Severe acute respiratory syndrome coronavirus 2, UniProt P0DTC2)
Experiment: biochemical
Format: binding

Structure (SMILES): O=c1c(O)c(-c2ccc(O)c(O)c2)oc2cc(O)cc(O)c12 [compound 4, quercetin]
- Kd: 75.6 µM

Source: PMC9167803 (Acta Pharmaceutica Sinica. B, 2022)
